How the values were obtained:
Assay type in all cases: in vivo
[1] = test system: FIMMI (Fimbristylis miliacea (L.) Vahl, globe fringerush); assay: In-water applied herbicidal mixtures, transplanted paddy rice, greenhouse (Example II)
Procedure: (§1) Weed seeds or nutlets of the desired test plant species were planted in puddled soil (mud) prepared by mixing a shredded, non-sterilized mineral soil (50.5 percent silt, 25.5 percent clay, and 24 percent sand, with a pH of about 7.6 and an organic matter content of about 2.9 percent) and water at a 1:1 volumetric ratio. The prepared mud was dispensed in 365 mL aliquots into 16-ounce (oz.) non-perforated plastic pots with a surface area of 86.59 square centimeters (cm^2) leaving a headspace of 3 centimeters in each pot. Mud was allowed to dry overnight prior to planting or transplanting. Rice seeds were planted in Sun Gro MetroMix® 306 planting mixture, which typically has a pH of 6.0 to 6.8 and an organic matter content of about 30 percent, in plastic plug trays. Seedlings at the second or third leaf stage of growth were transplanted into 840 mL of mud contained in 32-oz. non-perforated plastic pots with a surface area of 86.59 cm^2 4 days prior to herbicide application. The paddy was created by filling the headspace of the pots with 2.5 to 3 cm of water. When required to ensure good germination and healthy plants, a fungicide treatment and/or other chemical or physical treatment was applied. The plants were grown for 4-22 days in a greenhouse with an approximate 14 h photoperiod which was maintained at about 29′C during the day and about 26° C. during the night. Nutrients were added as Osmocote® (19:6:12, N:P:K+minor nutrients) at 2 g per 16-oz. pot and 4 g per 32-oz. pot. Water was added on a regular basis to maintain the paddy flood, and supplemental lighting was provided with overhead metal halide 1000-Watt lamps as necessary. The plants were employed for testing when they reached the first through fourth true leaf stage.
(§2) Treatments consisted of the acid or esters of 4-amino-3-chloro-5-fluoro-6-(4-chloro-2-fluoro-3-methoxy-phenyl)pyridine-2-carboxylic acid (compound A) each formulated as an SC and various herbicidal components alone and in combination. Forms of compound A were applied on an acid equivalent basis.
(§3) Other herbicidal components were applied on an active ingredient basis and included acetolactate synthase (ALS)-inhibiting herbicides (sulfonamide chemical class) penoxsulam formulated as Grasp® SC (GF-443), diclosulam formulated as Strongarm®, and cloransulam-methyl formulated as FirstRate®.
(§4) Treatment requirements for each compound or herbicidal component were calculated based upon the rates being tested, the concentration of active ingredient or acid equivalent in the formulation, an application volume of 2 mL per component per pot, and an application area of 86.59 cm^2 per pot.
(§5) For formulated compounds, a measured amount was placed in an individual 100 or 200 mL glass vial and was dissolved in a volume of 1.25% (v/v) Agri-Dex® crop oil concentrate to obtain each application solution.
(§6) Applications were made by injecting with a pipetter appropriate amounts of the application solutions, individually and sequentially, into the aqueous layer of the paddy. Control plants were treated in the same manner with the solvent blank. Applications were made so that all treated plant material received the same concentrations of acetone and crop oil concentrate.
(§7) The treated plants and control plants were placed in a greenhouse as described above and water was added as needed to maintain a paddy flood. After approximately 3 weeks the condition of the test plants as compared with that of the untreated plants was determined visually and scored on a scale of 0 to 100 percent where 0 corresponds to no injury or growth inhibition and 100 corresponds to complete kill.
(§8) Colby's equation was used to determine the herbicidal effects expected from the mixtures (Colby, S. R. 1967. Calculation of the synergistic and antagonistic response of herbicide combinations. Weeds 15:20-22.).
(§9) The following equation was used to calculate the expected activity of mixtures containing two active ingredients, A and B: Expected=A+B−(A×B/100)

[2] = test system: CYPRO (Cyperus rotundus L., purple nutsedge); assay: as above; settings: Compound A Acid 8.75 gae/ha
Procedure: as §1, §2, §3, §4, §5, §6, §7, §8, §9

[3] = test system: CYPDI (Cyperus difformis L., smallflower umbrella sedge); assay: as above; settings: Compound A Acid 16 gae/ha
Procedure: as §1, §2, §3, §4, §5, §6, §7, §8, §9

[4] = test system: ECHCG (Echinochloa crusgalli (L.) Beauv., barnyardgrass); assay: as above
Procedure: as §1, §2, §3, §4, §5, §6, §7, §8, §9

[5] = test system: LEFCH (Leptochloa chinensis (L.) Nees, Chinese sprangletop); assay: as above
Procedure: as §1, §2, §3, §4, §5, §6, §7, §8, §9

[6] = test system: IPOHE (Ipomoea hederacea Jacq., ivyleaf morningglory); assay: Postemergence foliar-applied herbicidal mixtures, direct seeded rice, greenhouse (Example I)
Text: (§10) Seeds or nutlets of the desired test plant species were planted in a soil matrix prepared by mixing a loam or sandy loam soil (e.g., 28.6 percent silt, 18.8 percent clay, and 52.6 percent sand, with a pH of about 5.8 and an organic matter content of about 1.8 percent) and calcareous grit in an 80 to 20 ratio. The soil matrix was contained in plastic pots with a volume of 1 quart and a surface area of 83.6 square centimeters (cm^2). When required to ensure good germination and healthy plants, a fungicide treatment and/or other chemical or physical treatment was applied. The plants were grown for 8-22 days in a greenhouse with an approximate 14 h photoperiod which was maintained at about 29° C. during the day and about 26° C. during the night. Nutrients (Peters Excel® 15-5-15 5-Ca 2-Mg and iron chelate) were applied in the irrigation solution as needed and water was added on a regular basis. Supplemental lighting was provided with overhead metal halide 1000-Watt lamps as necessary. The plants were employed for testing when they reached the first through fourth true leaf stage.
as §2, with “(Compound A),” for “(compound A)”, “SC (suspension concentrate),” for “SC”
as §3, with “SC,” for “SC (GF-443),”, “FirstRate®, flumetsulam formulated as Flumetsulam WG, and metosulam formulated as Eclipse®.” for “FirstRate®.”
(§11) Treatment requirements were calculated based upon the rates being tested, the concentration of active ingredient or acid equivalent in the formulation, and a 12 mL application volume at a rate of 187 L/ha.
(§12) For treatments comprised of formulated compounds, measured amounts of compounds were placed individually in 25 mL glass vials and diluted in a volume of 1.25% (v/v) Agri-Dex® crop oil concentrated to obtain 12× stock solutions. […] Application solutions were prepared by adding an appropriate amount of each stock solution (e.g., 1 mL) and diluted to the appropriate final concentrations with the addition of 10 mL of an aqueous mixture of 1.25% (v/v) crop oil concentrate so that the final spray solutions contained 1.25+/−0.05% (v/v) crop oil concentrate.
(§13) All stock solutions and applications solutions were visually inspected for compound compatibility prior to application. Spray solutions were applied to the plant material with an overhead Mandel track sprayer equipped with an 8002E nozzle calibrated to deliver 187 L/ha over an application area of 0.503 m^2 at a spray height of 18 to 20 inches (46 to 50 cm) above average plant canopy height. Control plants were sprayed in the same manner with the solvent blank.
as §7, with “watered by sub-irrigation” for “water was added as needed”, “prevent wash-off of the test compounds.” for “maintain a paddy flood.”, “weeks,” for “weeks”
as §8, §9

[7] = test system: DIGSA (Digitaria sanguinalis (L.) Scop., large crabgrass); assay: as above
Text: as §10
as §2, with “(Compound A),” for “(compound A)”, “SC (suspension concentrate),” for “SC”
as §3, with “SC,” for “SC (GF-443),”, “FirstRate®, flumetsulam formulated as Flumetsulam WG, and metosulam formulated as Eclipse®.” for “FirstRate®.”
as §11, §12, §13
as §7, with “watered by sub-irrigation” for “water was added as needed”, “prevent wash-off of the test compounds.” for “maintain a paddy flood.”, “weeks,” for “weeks”
as §8, §9

[8] = test system: LEFCH (Leptochloa chinensis (L.) Nees, Chinese sprangletop); assay: as above
Text: as §10
as §2, with “(Compound A),” for “(compound A)”, “SC (suspension concentrate),” for “SC”
as §3, with “SC,” for “SC (GF-443),”, “FirstRate®, flumetsulam formulated as Flumetsulam WG, and metosulam formulated as Eclipse®.” for “FirstRate®.”
as §11, §12, §13
as §7, with “watered by sub-irrigation” for “water was added as needed”, “prevent wash-off of the test compounds.” for “maintain a paddy flood.”, “weeks,” for “weeks”
as §8, §9

[9] = test system: LAMPU (Lamium purpureum (L.), purple deadnettle); assay: Postemergence foliar-applied herbicidal mixtures, cereal crops, greenhouse (Example III); settings: Florasulam 1.25 gai/ha, visual score 0 to 100 percent after 20-22 days
Procedure: (§14) Seeds of the desired test plant species were planted in Sun Gro MetroMix® 306 planting mixture, which typically has a pH of 6.0 to 6.8 and an organic matter content of about 30 percent, in plastic pots with a surface area of 103.2 square centimeters (cm^2). […] The plants were grown for 7-36 days in a greenhouse with an approximate 14 hour photoperiod which was maintained at about 18° C. during the day and about 17° C. during the night. Nutrients and water were added on a regular basis and supplemental lighting was provided with overhead metal halide 1000-Watt lamps as necessary. The plants were employed for testing when they reached the second or third true leaf stage.
(§15) Treatments consisted of the benzyl ester of 4-amino-3-chloro-5-fluoro-6-(4-chloro-2-fluoro-3-methoxy-phenyl)pyridine-2-carboxylic acid (Compound A), formulated as an SC, a second cereal herbicide alone and then both in combination.
(§16) Other herbicidal components were applied on an active ingredient basis and included acetolactate synthase (ALS)-inhibiting herbicides (sulfonamide chemical class) florasulam formulated as Derby® and pyroxsulam formulated as PowerFlex®. A measured aliquot of benzyl ester of 4-amino-3-chloro-5-fluoro-6-(4-chloro-2-fluoro-3-methoxy-phenyl)pyridine-2-carboxylic acid (Compound A) was placed in 25 milliliter (mL) glass vials and diluted in a volume of 1.25% (v/v) AgriDex® crop oil concentrated to obtain a stock solution. Compound requirements are based upon a 12 mL application volume at a rate of 187 liters per hectare (L/ha). […] Formulated compounds were applied to the plant material with an overhead Mandel track sprayer equipped with an 8002E nozzle calibrated to deliver 187 L/ha over an application area of 0.503 square meters (m^2) at a spray height of 18 inches (46 cm) above average plant canopy. Control plants were sprayed in the same manner with the solvent blank.
(§17) The treated plants and control plants were placed in a greenhouse as described above and watered by sub-irrigation to prevent wash-off of the test compounds. After 20-22 days, the condition of the test plants as compared with that of the control plants was determined visually and scored on a scale of 0 to 100 percent where 0 corresponds to no injury and 100 corresponds to complete kill.
as §8, §9

[10] = test system: VERPE (Veronica persica Poir., bird's-eye speedwell); assay: as above; settings: visual score 0 to 100 percent after 20-22 days
Procedure: as §14, §15, §16, §17, §8, §9

[11] = test system: SASKR (Salsola iberica (L.), Russian thistle); assay: as above; settings: Florasulam 3.75 gai/ha, visual score 0 to 100 percent after 20-22 days
Procedure: as §14, §15, §16, §17, §8, §9

[12] = test system: VIOTR (Viola tricolor (L.), wild pansy); assay: as above; settings: Florasulam 3.75 gai/ha, visual score 0 to 100 percent after 20-22 days
Procedure: as §14, §15, §16, §17, §8, §9

[13] = test system: CIRAR (Cirsium arvense (L.) Scop., Canada thistle); assay: as above; settings: visual score 0 to 100 percent after 20-22 days
Procedure: as §14, §15, §16, §17, §8, §9

[14] = test system: MATCH (Chamomilla chamomilla (L.) Rydb., scented mayweed); assay: as above; settings: Florasulam 3.75 gai/ha, visual score 0 to 100 percent after 20-22 days
Procedure: as §14, §15, §16, §17, §8, §9

COc1c(Cl)ccc(-c2nc(C(=O)O)c(Cl)c(N)c2F)c1F [Compound A Acid, 4-amino-3-chloro-5-fluoro-6-(4-chloro-2-fluoro-3-methoxy-phenyl)pyridine-2-carboxylic acid]
Visual Weed Control (%) - 21 DAA FIMMI Obs ([1]; Compound A Acid 16 gae/ha): 20%
Visual Weed Control (%) - 21 DAA FIMMI Obs ([1]; Compound A Acid 32 gae/ha): 20%
Visual Weed Control (%) - 21 DAA CYPRO Obs [2]: 0%
Visual Weed Control (%) - 21 DAA CYPDI Obs [3]: 30%
Visual Weed Control (%) - 22 DAA ECHCG Obs ([4]; Compound A Acid 16 gae/ha): 20%
Visual Weed Control (%) - 22 DAA ECHCG Obs ([4]; Compound A Acid 32 gae/ha): 25%
Visual Weed Control (%) - 25 DAA LEFCH Obs ([5]; Compound A Acid 8.75 gae/ha): 50%
Visual Weed Control (%) - 25 DAA LEFCH Obs ([5]; Compound A Acid 17.5 gae/ha): 50%
Visual Weed Control (%) - 25 DAA LEFCH Obs ([5]; Compound A Acid 35 gae/ha): 85%
Visual Weed Control (%) - 27 DAA IPOHE Obs ([6]; Compound A Acid 4.38 gae/ha): 10%
Visual Weed Control (%) - 27 DAA IPOHE Obs ([6]; Compound A Acid 8.75 gae/ha): 10%
Visual Weed Control (%) - 27 DAA IPOHE Obs ([6]; Compound A Acid 17.5 gae/ha): 10%
Visual Weed Control (%) - 20 DAA DIGSA Obs ([7]; Compound A Acid 5.3 gae/ha): 10%
Visual Weed Control (%) - 20 DAA DIGSA Obs ([7]; Compound A Acid 10.6 gae/ha): 20%
Visual Weed Control (%) - 20 DAA DIGSA Obs ([7]; Compound A Acid 21.2 gae/ha): 20%
Visual Weed Control (%) - 20 DAA LEFCH Obs ([8]; Compound A Acid 4.38 gae/ha): 15%
Visual Weed Control (%) - 20 DAA LEFCH Obs ([8]; Compound A Acid 5.3 gae/ha): 0%
Visual Weed Control (%) - 20 DAA LEFCH Obs ([8]; Compound A Acid 8.75 gae/ha): 30%
Visual Weed Control (%) - 20 DAA LEFCH Obs ([8]; Compound A Acid 10.6 gae/ha): 10%
Visual Weed Control (%) - 20 DAA LEFCH Obs ([8]; Compound A Acid 17.5 gae/ha): 50%
Visual Weed Control (%) - 19 DAA LEFCH Obs ([8]; Compound A Acid 19.4 gae/ha): 5%
Visual Weed Control (%) - 20 DAA LEFCH Obs ([8]; Compound A Acid 21.2 gae/ha): 15%

COc1ncc(F)c2nc(S(=O)(=O)Nc3c(F)cccc3F)nn12 [Florasulam, N-(2,6-difluorophenyl)-8-fluoro-5-methoxy[1,2,4]triazolo[1,5-c]pyrimidine-2-sulfonamide, reference compound]
LAMPU Obs [9]: 10%
VERPE Obs ([10]; Florasulam 1.25 gai/ha): 10%
VERPE Obs ([10]; Florasulam 3.75 gai/ha): 10%
SASKR Obs [11]: 30%
VIOTR Obs [12]: 65%
CIRAR Obs ([13]; Florasulam 1.25 gai/ha): 55%
CIRAR Obs ([13]; Florasulam 3.75 gai/ha): 40%
MATCH Obs [14]: 65%

Reference: US8906825B2, “Herbicidal compositions comprising 4-amino-3-chloro-5-fluoro-6-(4-chloro-2-fluoro-3-methoxyphenyl) pyridine-2-carboxylic acid or a derivative thereof and triazolopyrimidine sulfonamides” (Dow AgroSciences LLC, priority 2012, dated 2014)
